According to patent publication US20180214395A1 (priority 2017, published 2018):
“And” between values parts separate entries of the source, which are not always exact repeats. Identical values can stand only once. Like-named read-outs stand apart in the source and are kept apart here.

What was measured:
[1] = MAD study: pupillary constriction; format: in vivo, human; settings: mean (SD)
testosterone = assay: Serum testosterone levels in male MAD 25 mg subjects; format: in vivo, human; settings: for Testosterone Levels, individual male subjects: hydrochloride
[2] = Locomotor activity assessment (distance traveled, rearing); format: in vivo, rat; settings: for Distance traveled min 1-5, Mean / Rearing min 1-5, Mean / Total Distance Traveled, Mean / Total Rearing, Mean: 24 hours prior to testing; for Total Rearing, Mean: 60 minute test
[3] = Novelty-suppressed feeding test (NSFT); format: in vivo; settings: rat; 72 hr after single dose; ketamine 10 mg/kg ip, d-methadone 20 mg/kg sc
[4] = Modified Mini Mental State (3MS) in patients with chronic cancer pain (phase I-2a study); format: in vivo, human; settings: 40 mg every 12 hours for 12 days
[5] = in vivo
[6] = in vivo; remark: listed apart in the source
[7] = human, in vivo
clinical = settings: both, human, in vivo
[8] = Clinical Opiate Withdrawal Scale (COWS) after abrupt discontinuation, MAD study; settings: abrupt discontinuation after 10 consecutive days
[9] = Single ascending dose (SAD) study in healthy volunteers: pharmacokinetics of d-methadone; settings: both, human, in vivo
[10] = Bond-Lader Visual Analog Scale (cognitive and psychotomimetic effects), SAD and MAD studies
[11] = rat, 24 h after dosing, one-way ANOVA
[12] = 2-3-5 hours after single dose 5 mg, SAD

CCC(=O)C(C[C@H](C)N(C)C)(c1ccccc1)c1ccccc1 [d-methadone]
Greatest mean pupillary constriction (MPC) ([1]; MAD 25 mg, Day 9): −1.32 (0.553) mm | Greatest mean pupillary constriction (MPC) ([1]; MAD 50 mg, Day 6): −1.43 (0.175) mm | Greatest mean pupillary constriction (MPC) ([1]; MAD 75 mg, Day 5): −2.24 (0.619) mm | Testosterone serum levels (testosterone; 25 mg once per day for ten days, three male subjects): increased | Testosterone Levels, individual male subjects (testosterone; Day 6, 25 mg once a day for 10 days): 13.1 nmol/L | Testosterone Levels, individual male subjects (testosterone; Day 12, 25 mg once a day for 10 days): 14.4 nmol/L and 10.1 nmol/L | Testosterone Levels, individual male subjects (testosterone; Follow Up (Day 18 ± 1), 25 mg once a day for 10 days): 9.6 nmol/L and 13.6 nmol/L and 8.1 nmol/L | Testosterone Levels, individual male subjects (testosterone; Screening (Day −1), baseline, normal range 7.6-31.4): 7.4 nmol/L and 9.2 nmol/L and 4.1 nmol/L | Distance traveled min 1-5, Mean ([2]; 10 mg/kg): 597.167 | Rearing min 1-5, Mean ([2]; 10 mg/kg): 26.333 | Total Distance Traveled, Mean ([2]; 10 mg/kg): 2605.500 cm/60 min | Total Rearing, Mean ([2]; 10 mg/kg): 119.167 | Distance traveled min 1-5, Mean ([2]; 20 mg/kg): 556.833 | Rearing min 1-5, Mean ([2]; 20 mg/kg): 28.667 | Total Distance Traveled, Mean ([2]; 20 mg/kg): 2060.667 cm/60 min | Total Rearing, Mean ([2]; 20 mg/kg): 100.167 | Distance traveled min 1-5, Mean ([2]; 40 mg/kg): 447.500 | Rearing min 1-5, Mean ([2]; 40 mg/kg): 17.333 | Total Distance Traveled, Mean ([2]; 40 mg/kg): 1773.000 cm/60 min | Total Rearing, Mean ([2]; 40 mg/kg): 75.000 | Locomotor activity: total distance traveled (60 min) [2, 11]: no significant effect | Locomotor activity: total rearing frequency (60 min) [2, 11]: no significant effect | NSFT: latency to eat in a novel open field [3]: significantly decreased | Patients with 3MS improvement by at least one point [4]: five out of six | Tolerability [5]: well tolerated | TEAE: any event ([6]; both, human): 5 n (%) [number of events] | TEAE: dizziness ([6]; both, human): 1 n (%) [number of events] | Tolerability [6]: well tolerated | Maximum QTcF interval observed ([7]; both): 462 ms | Model-predicted ΔΔQT effect at geometric mean plasma concentration ([7]; both): 16.0 to 21.0 ms | QTc, individual prolonged value ([7]; male): 434 ms | AUC(0-inf) (clinical; 25 mg): 13000 ng·h/mL | Tmax (clinical; 25 mg, Tmax): 2.35 h | AUC(0-inf) (clinical; 50 mg): 32000 ng·h/mL | Cmax (clinical; 50 mg): 587 ng/mL | AUC(0-inf) (clinical; 75 mg): 28900 ng·h/mL | Cmax (clinical; 75 mg): 563 ng/mL | Withdrawal symptoms (COWS) [8]: did not cause symptoms of withdrawal | AUC(0-inf) ([9]; 5 mg): 1190 ng·h/mL | AUC(0-t) ([9]; 5 mg, AUC0-24, SAD 5 mg, mean): 675 ng·h/mL | AUC(0-t) ([9]; 5 mg, AUC0-last, SAD 5 mg, mean): 1250 ng·h/mL | Cmax ([9]; 5 mg, median, SAD 5 mg): 48.4 ng/mL | AUC(0-inf) ([9]; 20 mg): 6230 ng·h/mL | AUC(0-t) ([9]; 20 mg, AUC0-24, SAD 20 mg, mean): 2310 ng·h/mL | AUC(0-t) ([9]; 20 mg, AUC0-last, SAD 20 mg, mean): 4620 ng·h/mL | Cmax ([9]; 20 mg, SAD 20 mg, mean): 163 ng/mL | AUC(0-inf) ([9]; 60 mg): 14100 ng·h/mL | AUC(0-t) ([9]; 60 mg, AUC0-24, SAD 60 mg, mean): 5540 ng·h/mL | AUC(0-t) ([9]; 60 mg, AUC0-last, SAD 60 mg, mean): 13600 ng·h/mL | Cmax ([9]; 60 mg, SAD 60 mg, mean): 404 ng/mL | AUC(0-inf) ([9]; 100 mg): 31100 ng·h/mL | AUC(0-t) ([9]; 100 mg, AUC0-24, SAD 100 mg, mean): 10700 ng·h/mL | AUC(0-t) ([9]; 100 mg, AUC0-last, SAD 100 mg, mean): 29700 ng·h/mL | Cmax ([9]; 100 mg, SAD 100 mg, mean): 739 ng/mL | AUC(0-inf) ([9]; 150 mg): 32600 ng·h/mL | AUC(0-t) ([9]; 150 mg, AUC0-24, SAD 150 mg, mean): 14600 ng·h/mL | AUC(0-t) ([9]; 150 mg, AUC0-last, SAD 150 mg, mean): 37200 ng·h/mL | Cmax ([9]; 150 mg, SAD 150 mg, mean): 1060 ng/mL | AUC(0-t) ([9]; 200 mg, AUC0-24, SAD 200 mg, n=1): 20700 ng·h/mL | AUC(0-t) ([9]; 200 mg, AUC0-last, SAD 200 mg, n=1): 67700 ng·h/mL | Cmax ([9]; 200 mg, SAD 200 mg, n=1): 1530 ng/mL | Bond-Lader VAS mean score: I am feeling drowsy (0: Alert, 100: Drowsy) [10, 12]: 19.1 | Bond-Lader VAS mean score: I am feeling proficient (0: Incompetent, 100: Proficient) [10, 12]: 93.6 | Bond-Lader VAS mean score: I am feeling quick witted (0: Mentally slow, 100: Quick witted) [10, 12]: 91.8 | Bond-Lader Visual Analog Scale, domains of mental alertness and cognitive functions, vs placebo arm ([10]; SAD 5 mg single dose, 2-3-5 hours post dose): improved scores | Cognitive deficits or psychotomimetic effects (Bond-Lader Visual Analog Scale) ([10]; healthy subjects of SAD and MAD studies): did not cause clinically significant cognitive deficits or psychotomimetic effects
